Reference: patent US4724233A, “Therapeutical application of phosphonylmethoxyalkyl adenines” (Stichting Rega VZW, priority 1985, dated 1988)
Converted amounts (≈) assume the structure as drawn. Read-outs that look alike come from different tables or passages of the source.

Legend:
[1] = system: HSV-2 (strain) Lyons; assay: inhibition of cytopathic effect of HSV-2 strain Lyons; format: cell-based, herpes simplex virus type 2; details: Human alphaherpesvirus 2; Table 4; HSV-2 Lyons, PRK cells; read-out: MIC50
[2] = system: HSV-1 (strain) McIntyre; assay: inhibition of cytopathic effect of HSV-1 strain McIntyre; format: cell-based, herpes simplex virus type 1; details: Human alphaherpesvirus 1; Table 4; HSV-1 McIntyre, PRK cells; read-out: MIC50
[3] = system: Herpes simplex 2 (G); assay: inhibition of cytopathic effect of herpes simplex 2 (G); format: cell-based, herpes simplex virus type 2; details: Human alphaherpesvirus 2, PRK, PRK cells, read-out: MIC50
[4] = system: Reovirus; assay: inhibition of cytopathic effect of reovirus; format: cell-based; details: Reovirus sp.; Table 3; Vero B cells; read-out: MIC50
[5] = system: Vaccinia; assay: microbe, parasite or virus in culture; format: cell-based; details: Orthopoxvirus vaccinia, PRK, read-out: MIC50
[6] = system: Herpes simplex I (KOS); assay: inhibition of cytopathic effect of herpes simplex 1 (KOS); format: cell-based, herpes simplex virus type 1; details: PRK cells; for EC50: Human alphaherpesvirus 1, read-out: MIC50
[7] = system: HSV-1 (strain) TK^- C1101; assay: inhibition of cytopathic effect of HSV-1 TK- strain C1101; format: cell-based, herpes simplex virus type 1; details: Human alphaherpesvirus 1, PRK, read-out: MIC50
[8] = system: HSV-2 (strain) 196; assay: inhibition of cytopathic effect of HSV-2 strain 196; format: cell-based, herpes simplex virus type 2; details: Human alphaherpesvirus 2; Table 4; HSV-2 196, PRK cells; read-out: MIC50
[9] = antimetabolic activity: incorporation of 3H-labeled precursors into primary rabbit kidney cells; details: rabbit, prk cells
[10] = system: Polio 1; assay: microbe, parasite or virus in culture; format: cell-based; details: HeLa, read-out: MIC50
[11] = system: Sindbis; assay: inhibition of cytopathic effect of Sindbis; format: cell-based; details: Table 3; Vero B cells; read-out: MIC50
[12] = system: Vesicular stomatitis; assay: microbe, parasite or virus in culture; format: cell-based; details: read-out: MIC50
[13] = system: Measles; assay: inhibition of cytopathic effect of measles; format: cell-based; details: Measles morbillivirus; Table 3; Vero Flow cells; read-out: MIC50
[14] = in vitro; details: rabbit, prk cells
[15] = system: Parainfluenza 3; assay: inhibition of cytopathic effect of parainfluenza 3; format: cell-based; details: Table 3; Vero B cells; read-out: MIC50
[16] = system: Coxsackie B4; assay: inhibition of cytopathic effect of Coxsackie B4; format: cell-based; details: Enterovirus B, B4; Table 3; Vero B, HeLa cells; read-out: MIC50
[17] = system: HSV-1 (strain) F; assay: inhibition of cytopathic effect of HSV-1 strain F; format: cell-based, herpes simplex virus type 1; details: Human alphaherpesvirus 1; Table 4; HSV-1 F, PRK cells; read-out: MIC50
[18] = system: vaccinia virus (VV); format: cell-based; details: 100 μg/ml, PRK cells, average of two determinations
[19] = system: herpes simplex virus type 1 (HSV-1) (strain KOS); format: cell-based; details: 100 μg/ml, PRK cells
[20] = system: Moloney sarcoma; assay: inhibition of Moloney sarcoma virus; format: cell-based, Moloney mouse sarcoma virus; details: Mus musculus; Table 3; MO cells; read-out: MIC50
[21] = system: VZV (strain) YS; assay: microbe, parasite or virus in culture; format: cell-based, varicella-zoster virus; details: Human alphaherpesvirus 3, Table 5, HEL cells, read-out: MIC50
[22] = system: VZV (strain) OKa; assay: microbe, parasite or virus in culture; format: cell-based, varicella-zoster virus; details: Human alphaherpesvirus 3, HEL, read-out: MIC50
[23] = system: VZV (strain) TK^- 07-1; assay: microbe, parasite or virus in culture; format: cell-based, varicella-zoster virus; details: Human alphaherpesvirus 3, HEL, read-out: MIC50
[24] = system: CMV (strain) Davis; assay: inhibition of CMV strain Davis in HEL cells; format: cell-based, cytomegalovirus; details: Human betaherpesvirus 5, Table 5, read-out: MIC50
[25] = system: HSV-1 (strain) TK^- B2006; assay: inhibition of cytopathic effect of HSV-1 TK- strain B2006; format: cell-based, herpes simplex virus type 1; details: Human alphaherpesvirus 1, PRK, read-out: MIC50
[26] = system: VZV (strain) TK^- YSR; assay: microbe, parasite or virus in culture; format: cell-based, varicella-zoster virus; details: Human alphaherpesvirus 3, HEL, read-out: MIC50
[27] = system: CMV (strain) AD 169; assay: inhibition of CMV strain AD 169 in HEL cells; format: cell-based, cytomegalovirus; details: Human betaherpesvirus 5; Table 5; CMV AD 169, HEL cells; read-out: MIC50
[28] = system: TK^- herpes viruses; details: Prusoff et al.; cited from earlier work
[29] = ID50 Leu incorporation, (3H-4,5)Leu
[30] = ID50 Urd incorporation, (3H-5)Urd
[31] = ID50 dThd incorporation, (3H-methyl) dThd
[32] = ID50 dUrd incorporation, (3H-1',2')dUrd

Structure (SMILES) | EC50 [1] | EC50 [2] | EC50 ([3]; Table 3) | EC50 ([3]; Table 4, HSV-2 G) | EC50 [4] | EC50 [5] | EC50 ([6]; Table 3) | EC50 [7] | EC50 [8] | IC50 [9, 29] | IC50 [9, 30] | IC50 [9, 31] | IC50 [9, 32] | EC50 [10] | EC50 [11] | EC50 [12] | EC50 [13] | MCC at 72 h [14] | EC50 [15] | EC50 [16] | also measured
Nc1ncnc2c1ncn2C[C@H](O)COCP(=O)(O)O (racemic) [No. 3, (RS)-9-(2-hydroxy-3-phosphonylmethoxypropyl)-adenine] | 30 to 100 µg/mL (≈ 98.9 to 330 µM) | 150 µg/mL (≈ 495 µM) | 30 to 150 µg/mL (≈ 98.9 to 495 µM) | 30 to 150 µg/mL (≈ 98.9 to 495 µM) | > 400 µg/mL | 15 to 30 µg/mL (≈ 49.5 to 98.9 µM) | 70 to 150 µg/mL (≈ 231 to 495 µM) | 30 to 40 µg/mL (≈ 98.9 to 132 µM) | 70 to 150 µg/mL (≈ 231 to 495 µM) | > 400 µg/mL | > 400 µg/mL | > 400 µg/mL | > 400 µg/mL | > 400 µg/mL | > 400 µg/mL | > 400 µg/mL | > 400 µg/mL | ≥ 200 µg/mL | > 400 µg/mL | > 400 µg/mL | MIC50 ([6]; Table 4, HSV-1 KOS): 70 to 150 µg/mL; EC50 [17]: 70 to 150 µg/mL (≈ 231 to 495 µM)
Nc1ncnc2c1ncn2C[C@H](O)CO [(S)-DHPA, 9-(S)-(2,3-dihydroxypropyl)adenine, reference compound] | – | – | > 400 µg/mL | – | 100 µg/mL (≈ 478 µM) | 50 µg/mL (≈ 239 µM) | > 400 µg/mL | – | – | > 400 µg/mL | > 400 µg/mL | 350 µg/mL (≈ 1670 µM) | > 400 µg/mL | > 400 µg/mL | > 400 µg/mL | 20 µg/mL (≈ 95.6 µM) | 20 µg/mL (≈ 95.6 µM) | > 400 µg/mL | 25 µg/mL (≈ 119 µM) | 130 µg/mL (≈ 621 µM) | Titer of VV ([18]; 1 h): 2.0 log10 PFU/ml; Titer of VV ([18]; 24 h): 4.7 log10 PFU/ml; Titer of VV ([18]; 48 h): 5.2 log10 PFU/ml; Titer of VV ([18]; 72 h): 5.5 log10 PFU/ml; Titer of HSV-1 ([19]; 1 h): 1.3 log10 PFU/ml; Titer of HSV-1 ([19]; 24 h): 6.5 log10 PFU/ml; Titer of HSV-1 ([19]; 48 h): 6.9 log10 PFU/ml; Titer of HSV-1 ([19]; 72 h): 6.9 log10 PFU/ml; EC50 [20]: > 200 µg/mL
O=c1[nH]c(=O)n([C@H]2C[C@H](O)[C@@H](CO)O2)cc1/C=C/Br [BVDU, (E)-5-(2-bromovinyl)-2'-deoxyuridine, reference compound] | 7 µg/mL (≈ 21 µM) | 0.02 µg/mL (≈ 0.06 µM) | – | 2 µg/mL (≈ 6 µM) | – | – | – | 70 µg/mL (≈ 210 µM) | 70 µg/mL (≈ 210 µM) | – | – | – | – | – | – | – | – | – | – | – | EC50 [21]: 0.006 µg/mL (≈ 0.018 µM); EC50 [22]: 0.007 µg/mL (≈ 0.021 µM); EC50 [23]: > 400 µg/mL; EC50 [24]: 300 µg/mL (≈ 901 µM); EC50 [25]: > 200 µg/mL; EC50 ([6]; Table 4, HSV-1 KOS): 0.02 µg/mL (≈ 0.06 µM); EC50 [26]: > 400 µg/mL; EC50 [27]: 200 µg/mL (≈ 600 µM); EC50 [17]: 0.02 µg/mL (≈ 0.06 µM); activity against TK^- herpes viruses (in words) [28]: inactive
